Assay results from patent publication US10881719B2, “Combinatorial androgen deprivation with an androgen receptor vaccine” (Wisconsin Alumni Research Foundation, priority 2016, dated 2021).
Square brackets hold non-standard residues; d marks the D form. Peptide text beside a SMILES is read from it. * marks the point of attachment. dPhe(4-NHCONH2) = NC(=O)Nc1ccc(C[C@@H](N)C(=O)O)cc1; Dihydroorotyl(S) = O=C1C[C@@H](C(=O)*)NC(=O)N1; dPhe(4-Cl) = N[C@H](Cc1ccc(Cl)cc1)C(=O)O; Phe(4-NH2) = Nc1ccc(C[C@H](N)C(=O)O)cc1; d2Nal = N[C@H](Cc1ccc2ccccc2c1)C(=O)O; Lys(iPr) = CC(C)NCCCC[C@H](N)C(=O)O; d3Pal = N[C@H](Cc1cccnc1)C(=O)O

Key:
prostate tumor cells = experiment: AR expression in prostate tumor cells in vitro after treatment with AR antagonists; format: cell-based; conditions: after treatment with AR antagonist
Myc-CaP/AS tumors [1] = experiment: AR expression in MycCaP tumors in vivo after chemical castration, intracellular staining; design: species or system FVB mice; conditions: MycCaP model in vivo, degarelix vs sham, tumors at outgrowth
Text: Briefly, Human 22Rv1 prostate cancer cells cultured in androgen replete (FCS) or—deprived (CSS) conditions (FIG. 7A), or mouse MycCaP cells serially passaged in untreated (MycCaP/AS) or castrate (MycCaP/CR) mice (FIG. 7B) were collected and analyzed for AR expression by qPCR (left panels), ELISA (center panels), and intracellular staining (ICS, right panels). FIG. 7C, FVB mice were challenged with MycCaP/AS tumor cells, and given degarelix or a sham treatment. At the time of outgrowth, tumors were collected and analyzed for AR expression by intracellular flow cytometry (example histogram with samples stained with IgG or AR-intracellular antibodies; quantified in right panels). FIG. 7D, AR-specific CD8+ T cells were cultured with 22Rv1/FCS or 22Rv1/CSS cells, and evaluated for T-cell activation by CD69 expression (left panel), IFNγ and TNFα cytokine expression (center panel), and cytotoxicity (right panel). In all panels, * indicates p<0.05 by Student's t-test.
FVB mice were inoculated subcutaneously with […] Myc-CaP/AS tumor cells, and followed daily for the presence of palpable tumors. Once tumors were palpable, mice were treated subcutaneously with either degarelix (25 mg/kg) or a vehicle sham treatment every four weeks. […] Tumor growth was measured at least three times weekly, and tumor volumes calculated as we've published (19). […]

Myc-CaP/AS tumors [2] = experiment: Myc-CaP/AS tumor growth in FVB mice, ADT with or without immunization; format: in vivo; conditions: degarelix alone, MycCaP model
Description: Briefly, male FVB mice (n=8) were implanted with MycCaP tumors, treated with degarelix (or sham), and immunized weekly with pTVG-AR or control pTVG4. FIG. 8A, splenocytes were collected and analyzed for immune responses against MycCaP/CR tumor cells by intracellular cytokine staining (left panel) and AR peptide-stimulated splenocytes from pTVG-AR-immunized mice were measured for ability to lyse MycCap/AS vs. MycCap/CR tumor cells (right panel). FIG. 8B depicts mice followed for tumor volume. In all panels, * indicates p<0.05 by Student's t-test. FIG. 8C depicts tumor volume post-challenge of control (sham), degarelix+pTVG4 and degarelix+pTVG-AR.
FVB mice were inoculated subcutaneously with […] Myc-CaP/AS tumor cells, and followed daily for the presence of palpable tumors. Once tumors were palpable, mice were treated subcutaneously with either degarelix (25 mg/kg) or a vehicle sham treatment every four weeks. For immunization studies, degarelix-treated animals were randomized to weekly immunization with 100 μg pTVG4 or pTVG-AR beginning one day after receiving degarelix. Tumor growth was measured at least three times weekly, and tumor volumes calculated as we've published (19). At the time of euthanasia, tumors and spleens were collected. […]

[3] = system: PTEN-deficient prostate tumors; experiment: Autochthonous prostate tumors in PbCre+ PTENfl/fl mice, PET/CT and necropsy; format: in vivo; conditions: androgen deprivation (degarelix) vs sham, pre- to post-treatment
Description: FVB mice were inoculated subcutaneously with […] Myc-CaP/AS tumor cells, and followed daily for the presence of palpable tumors. Once tumors were palpable, mice were treated subcutaneously with either degarelix (25 mg/kg) or a vehicle sham treatment every four weeks. For immunization studies, degarelix-treated animals were randomized to weekly immunization with 100 μg pTVG4 or pTVG-AR beginning one day after receiving degarelix. Tumor growth was measured at least three times weekly, and tumor volumes calculated as we've published (19). At the time of euthanasia, tumors and spleens were collected. For studies using PTEN-deficient mice, animals began receiving degarelix (25 mg/kg) at 20 weeks (+/−two weeks) of age, followed by biweekly immunization with 100 μg pTVG4 or pTVG-AR beginning one day after ADT. Animals were treated until 40 weeks of age (+/−two weeks) before tissue collection.
All mice were intravenously administered between 5-8 MBq of 124I-CLR1404 and then micro positron emission tomography/computed tomography (PET/CT) scanned 96 hrs post-injection. During scanning, mice were anesthetized with 2% isoflurane inhalation gas mixed with 1 L/min of pure oxygen (27). […]
All PET and CT images were co-registered. Image data were analyzed using the General Analysis tools provided by Siemens Inveon Research Workplace (Siemens Medical Solutions). […]

Row | Compound | AR expression in prostate tumor cells (prostate tumor cells) | AR expression in tumors (Myc-CaP/AS tumors [1]) | tumor growth (Myc-CaP/AS tumors [2]) | 124I-CLR1404 mean and max tumor uptake [3]
1 | CNC(=O)c1ccc(N2C(=S)N(c3ccc(C#N)c(C(F)(F)F)c3)C(=O)C2(C)C)cc1F [enzalutamide] | increased AR expression |  |  | 
2 | CC(=O)N[C@H](Cc1ccc2ccccc2c1)C(=O)N[C@H](Cc1ccc(Cl)cc1)C(=O)N[C@H](Cc1cccnc1)C(=O)N[C@@H](CO)C(=O)N[C@@H](Cc1ccc(NC(=O)[C@@H]2CC(=O)NC(=O)N2)cc1)C(=O)N[C@H](Cc1ccc(NC(N)=O)cc1)C(=O)N[C@@H](CC(C)C)C(=O)N[C@@H](CCCCNC(C)C)C(=O)N1CCC[C@H]1C(=O)N[C@H](C)C(N)=O [degarelix] (Ac-[d2Nal][dPhe(4-Cl)][d3Pal]S[Phe(4-NH2)](Dihydroorotyl(S))[dPhe(4-NHCONH2)]L[Lys(iPr)]P[dA]-NH2) |  | increased AR expression in tumors | delay in tumor growth | decreased 124I-CLR1404 mean and max tumor uptake
